{
  "source": "patent US4806532A",
  "about": "“Inhibition of epithelial phosphate transport” (Mayo Foundation for Medical Education and Research, priority 1985, dated 1989)",
  "key": {"Na-Pi cotransporter": {"target": "T1, Na-Pi cotransporter (Rattus norvegicus, UniProt Q06496)", "T1 construct": "from tissue; host or cells: rat renal cortex, brush border membrane vesicles", "T1 sequence (Q06496 1-637)": "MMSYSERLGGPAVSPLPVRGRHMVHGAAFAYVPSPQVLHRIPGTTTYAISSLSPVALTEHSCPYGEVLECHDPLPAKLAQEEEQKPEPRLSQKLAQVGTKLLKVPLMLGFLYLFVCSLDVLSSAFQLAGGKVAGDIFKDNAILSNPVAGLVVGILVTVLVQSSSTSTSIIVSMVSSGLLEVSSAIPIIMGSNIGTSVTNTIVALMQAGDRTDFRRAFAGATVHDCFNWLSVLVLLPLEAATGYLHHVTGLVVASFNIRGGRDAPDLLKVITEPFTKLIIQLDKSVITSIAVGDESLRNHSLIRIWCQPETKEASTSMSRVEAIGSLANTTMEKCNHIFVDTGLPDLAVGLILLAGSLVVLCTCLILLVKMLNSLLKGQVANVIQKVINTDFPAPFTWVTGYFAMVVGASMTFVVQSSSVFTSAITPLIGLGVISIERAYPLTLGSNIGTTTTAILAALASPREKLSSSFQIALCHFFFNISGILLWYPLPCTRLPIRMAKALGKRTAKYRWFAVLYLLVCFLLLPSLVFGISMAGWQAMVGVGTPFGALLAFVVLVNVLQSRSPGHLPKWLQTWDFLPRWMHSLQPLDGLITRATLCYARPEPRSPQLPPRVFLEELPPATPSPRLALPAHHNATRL", "test": "Na+-gradient-dependent 32Pi uptake by renal cortical BBMV (rapid filtration)", "type": "biochemical", "experimental": "(§1) The brush border membrane vesicles (BBMV) were prepared from renal cortical tissue of adult male Sprague-Dawley rats of an average body weight of about 220 grams. Rats were fed ad libitum standard rat chow containing 0.7% Pi and had free access to distilled water. Rats were sacrificed under anesthesia and dissected renal cortical tissue was used for preparation of BBMV fraction by the divalent cation-precipitation procedure, employed and described in detail in J. Clin. Invest., 67, 1347 (1981) and J. Biol. Chem., 258, 5695 (1983), with the following modifications: (a) MgCl2 instead of CaCl2 was added to crude homogenate (final concentration 10 mM MgCl2) to precipitate membranes other than BBMV; (b) in the final step, BBMV were washed and equilibrated in a medium of pH=7.5, instead of pH=8.5. The enrichment and specific activities of typical BBM enzymes alkaline phosphatase (APases), γ-glutyamyl transferase (γ-GTT), leucineaminopeptidase (LAP) and maltase with use of these modifications were similar as in BBMV fractions prepared in our previous studies. As a final step in the preparative procedure, the BBMV fraction was washed and resuspended in a medium containing 300 mM mannitol and 5 mM Tris-HEPES adjusted to pH=t.5, referred to as \"MTH-medium,\" unless specified otherwise. The analogous BBMV fractions, using the same procedure, were prepared from renal cortices of mongrel dogs, albino mice and New Zealand albino rabbits.\nThe BBMV uptake of ^32 Pi, D-[^3 H]-glucose, L-[^3 H]-proline and ^22 Na^+ was measured by means of a rapid filtration technique, as described in J. Clin. Invest., 67, 1347 (1981) and Am. J. Physiol., 246, F133-F139 (1984). Also, unless specified otherwise, the medium for the solute uptake assay consisted of following compounds (in final concentrations): 100 mM mannitol, 100 mM NaCl (or 100 mM KC1) and 5 mM Tris-HEPES (pH=7.5) and eitehr 0.1 mM K2 H^32 PO4, or 0.05 mM D-[^3 H]-glucose, or 0.025 mM L-[^3 H]-proline. IN the ^22 Na^+ uptake studies, the assay medium contained 100 mM ^22 NaCl (^22 NaCl about […] per tube), 100 mM mannitol and 5 mM Tris-HEPES (pH 7.5).\nIn most experiments, the Na^+ -gradient-dependent ^32 Pi uptake in the concentrative \"uphill\" phase was measured at 20 seconds period. Since Na^+ -independent Pi uptake in this time period was quantitatively minor component (<5%) of the Na^+ -gradient-dependent Pi uptake, it was not routinely subtracted."}, "[1]": {"test": "Hydrolysis of phosphono-compounds (release of Pi) in the BBMV assay", "conditions": "1 mM; hydrolysis to release more than 5% Pi", "from_the_text": "Compounds studied in the present experiments which inhibited BBM transport of Pi without hydrolysis to release more than 5% Pi are listed in Table 1."}, "[2]": {"system": "D-[^3 H]-glucose uptake by BBMV", "test": "Na+-gradient-dependent uptake of D-[3H]-glucose by renal BBMV", "type": "biochemical, rat", "conditions": "initial uptake 15 sec, FIG. 2", "experimental": "as §1, with “As a final step in the preparative procedure, the BBMV fraction was washed and resuspended in a medium containing 300 mM mannitol and 5 mM Tris-HEPES adjusted to pH=t.5, referred to as \"MTH-medium,\" unless specified otherwise. The analogous BBMV fractions, using the same procedure, were prepared from renal cortices of mongrel dogs, albino mice and New Zealand albino rabbits.” left out\n(§2) The BBMV uptake of ^32 Pi, D-[^3 H]-glucose, L-[^3 H]-proline and ^22 Na^+ was measured by means of a rapid filtration technique, as described in J. Clin. Invest., 67, 1347 (1981) and Am. […]"}, "[3]": {"system": "diffusional uptake of ^22 Na^+ by BBMV", "test": "Diffusional uptake of 22Na+ by renal BBMV", "type": "biochemical, rat", "conditions": "1 mM", "experimental": "as §1, with “As a final step in the preparative procedure, the BBMV fraction was washed and resuspended in a medium containing 300 mM mannitol and 5 mM Tris-HEPES adjusted to pH=t.5, referred to as \"MTH-medium,\" unless specified otherwise. The analogous BBMV fractions, using the same procedure, were prepared from renal cortices of mongrel dogs, albino mice and New Zealand albino rabbits.” left out\nas §2"}, "[4]": {"system": "L-[^3 H]-proline uptake by BBMV", "test": "Na+-gradient-dependent uptake of L-[3H]-proline by renal BBMV", "type": "biochemical, rat", "conditions": "initial uptake 15 sec, FIG. 2", "experimental": "as §1, with “As a final step in the preparative procedure, the BBMV fraction was washed and resuspended in a medium containing 300 mM mannitol and 5 mM Tris-HEPES adjusted to pH=t.5, referred to as \"MTH-medium,\" unless specified otherwise. The analogous BBMV fractions, using the same procedure, were prepared from renal cortices of mongrel dogs, albino mice and New Zealand albino rabbits.” left out\nas §2"}},
  "note": "Entries after “also recorded” stand apart in the source; their conditions may differ.",
  "data": [
    {"compound": "NCCP(=O)(O)O", "note": "[2-aminoethylphosphonic acid, reference compound]", "values": [
      {"measurement": "effect on Na+-gradient uptake of Pi by renal BBMV (in words)", "setting": "Na-Pi cotransporter", "result": "lacked the inhibitory effect"}
    ]},
    {"compound": "CC(O)(P(=O)(O)O)P(=O)(O)O", "note": "[EHDP, disodium ethane-1-hydroxy-1,1-diphosphonate, reference compound]", "values": [
      {"measurement": "Note: hydrolysis", "setting": "[1]", "result": "no"},
      {"measurement": "inhibition at 1000 µM", "setting": "Na-Pi cotransporter; 1 mM, initial uptake at 20 sec, rat kidney cortex BBMV, read-out: Δ% (inhibition as percent decrease from control) of Na+-gradient-dependent 32Pi uptake", "result": -27, "unit": "%"}
    ]},
    {"compound": "O=P(O)(O)CP(=O)(O)O", "note": "[MDP, Methylenediphosphonic acid, reference compound]", "values": [
      {"measurement": "inhibition at 5000 µM", "setting": "Na-Pi cotransporter; 5 mM, initial uptake at 20 sec, rat kidney cortex BBMV, read-out: Δ% (inhibition as percent decrease from control) of Na+-gradient-dependent 32Pi uptake", "result": -21, "unit": "%"}
    ]},
    {"compound": "O=C(O)P(=O)(O)O", "note": "[PFA, phosphonoformic acid]", "values": [
      {"measurement": "effect on Na+-gradient-dependent uptake of D-[3H]-glucose", "setting": "[2]", "result": "no inhibitory effect"},
      {"measurement": "22Na+ uptake 120 min", "setting": "[3]; equilibrium, control 166 ± 25", "result": "192 ± 30", "unit": "nmoles/mg protein"},
      {"measurement": "22Na+ uptake 20 sec", "setting": "[3]; mean ± SEM of 3 experiments, control 42 ± 4", "result": "45 ± 3", "unit": "nmoles/mg protein"},
      {"measurement": "effect on Na+-gradient-dependent uptake of L-[3H]-proline", "setting": "[4]", "result": "no inhibitory effect"}
    ]},
    {"compound": "O=C(O)CCP(=O)(O)O", "note": "[PPA, phosphonopropionic acid, reference compound]", "values": [
      {"measurement": "effect on Na+-gradient uptake of Pi by renal BBMV (in words)", "setting": "Na-Pi cotransporter", "result": "inactive"}
    ]},
    {"compound": "O=P(O)(O)CO", "note": "[hydroxymethylphosphonic acid, reference compound]", "values": [
      {"measurement": "effect on Na+-gradient uptake of Pi by renal BBMV (in words)", "setting": "Na-Pi cotransporter", "result": "without effect; also recorded: lacked the inhibitory effect"}
    ]},
    {"compound": "O=P(O)(O)c1ccccc1", "note": "[phenylphosphonic acid, reference compound]", "values": [
      {"measurement": "effect on Na+-gradient uptake of Pi by renal BBMV (in words)", "setting": "Na-Pi cotransporter", "result": "without effect; also recorded: lacked the inhibitory effect"}
    ]},
    {"compound": "COC(=O)CP(=O)(OC)OC", "note": "[trimethylester of PAA, reference compound]", "values": [
      {"measurement": "effect on Na+-gradient uptake of Pi by renal BBMV (in words)", "setting": "Na-Pi cotransporter", "result": "without inhibitory effort"}
    ]},
    {"compound": "COC(=O)P(=O)(OC)OC", "note": "[trimethylester of TPFA, reference compound]", "values": [
      {"measurement": "effect on Na+-gradient uptake of Pi by renal BBMV (in words)", "setting": "Na-Pi cotransporter", "result": "without inhibitory effort"}
    ]}
  ]
}
